ChEMBL document CHEMBL1201862, “PubChem BioAssay data set” (2004)
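96-well plates; 48 h exposure; 5 concentrations. Endpoints by linear interpolation between flanking doses. Not reached: highest tested concentration assigned. GI50 marks 50% less growth.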 The source made the active and inactive calls. Cut-off read from the data, not from the text of the source: active = GI50 up to about 1.1 µM and inactive = higher.

Tests used:
Assay in all cases: NCI tumour cell line growth inhibition, 48 h
SN12C = tested on: SN12C
SNB-75 = tested on: SNB-75
SF-268 = tested on: SF-268
HCT-116 = tested on: HCT-116
XF498 = tested on: XF498
LXFL 529 = tested on: LXFL 529
HL-60 = tested on: HL-60
NCI-H23 = tested on: NCI-H23
SK-MEL-28 = tested on: SK-MEL-28
KM12 = tested on: KM12
OVCAR-3 = tested on: OVCAR-3
SK-OV-3 = tested on: SK-OV-3
SF-295 = tested on: SF-295
TK-10 = tested on: TK-10
DMS-273 = tested on: DMS-273
EKVX = tested on: EKVX
CAKI-1 = tested on: CAKI-1
786-0 = tested on: 786-0
UACC-62 = tested on: UACC-62
MOLT-4 = tested on: MOLT-4
HOP-62 = tested on: HOP-62
HOP-92 = tested on: HOP-92
OVCAR-5 = tested on: OVCAR-5
ACHN = tested on: ACHN
IGROV-1 = tested on: IGROV-1
SK-MEL-5 = tested on: SK-MEL-5
K562 = tested on: K562
OVCAR-4 = tested on: OVCAR-4
NCI-H226 = tested on: NCI-H226
SW-620 = tested on: SW-620
SNB-19 = tested on: SNB-19
NCI-H522 = tested on: NCI-H522
HT-29 = tested on: HT-29
SF-539 = tested on: SF-539
A498 = tested on: A498
A549 = tested on: A549
M19-MEL = tested on: M19-MEL
SNB-78 = tested on: SNB-78
RXF 393 = tested on: RXF 393
U-251 = tested on: U-251
OVCAR-8 = tested on: OVCAR-8
CCRF-CEM = tested on: CCRF-CEM
UO-31 = tested on: UO-31
M14 = tested on: M14
UACC-257 = tested on: UACC-257
SK-MEL-2 = tested on: SK-MEL-2
DLD-1 = tested on: DLD-1
Malme-3M = tested on: Malme-3M
NCI-H460 = tested on: NCI-H460

With `O=C1CCCC1NC(=O)C(F)(F)F` (centres undefined) the GI50 (SN12C) was > 100 µM (inactive), the GI50 (SNB-75) was > 100 µM (inactive) and the GI50 (SF-268) was > 100 µM (inactive). The GI50 (HCT-116) was > 100 µM (inactive), the GI50 (XF498) was > 100 µM (inactive) and the GI50 (LXFL 529) was > 100 µM (inactive). The GI50 (HL-60) was > 100 µM (inactive), the GI50 (NCI-H23) was > 100 µM (inactive) and the GI50 (SK-MEL-28) was > 100 µM (inactive). For the same compound, the GI50 (KM12) was > 100 µM (inactive), the GI50 (OVCAR-3) was > 100 µM (inactive) and the GI50 (SK-OV-3) was > 100 µM (inactive). The GI50 (SF-295) was > 100 µM (inactive), the GI50 (TK-10) was > 100 µM (inactive) and the GI50 (DMS-273) was > 100 µM (inactive). The GI50 (EKVX) was > 100 µM (inactive), the GI50 (CAKI-1) was > 100 µM (inactive) and the GI50 (786-0) was > 100 µM (inactive). The GI50 (UACC-62) was > 100 µM (inactive), the GI50 (MOLT-4) was > 100 µM (inactive) and the GI50 (HOP-62) was > 100 µM (inactive). For the same compound, the GI50 (HOP-92) was > 100 µM (inactive), the GI50 (OVCAR-5) was > 100 µM (inactive) and the GI50 (ACHN) was > 100 µM (inactive). The GI50 (IGROV-1) was > 100 µM (inactive), the GI50 (SK-MEL-5) was > 100 µM (inactive) and the GI50 (K562) was > 100 µM (inactive). For the same compound, the GI50 (OVCAR-4) was > 100 µM (inactive), the GI50 (NCI-H226) was > 100 µM (inactive) and the GI50 (SW-620) was > 100 µM (inactive). The GI50 (SNB-19) was > 100 µM (inactive), the GI50 (NCI-H522) was > 100 µM (inactive) and the GI50 (HT-29) was > 100 µM (inactive). For the same compound, the GI50 (SF-539) was > 100 µM (inactive), the GI50 (A498) was > 100 µM (inactive) and the GI50 (A549) was > 100 µM (inactive). For the same compound, the GI50 (M19-MEL) was > 100 µM (inactive), the GI50 (SNB-78) was > 100 µM (inactive) and the GI50 (RXF 393) was > 100 µM (inactive). The GI50 (U-251) was > 100 µM (inactive), the GI50 (OVCAR-8) was > 100 µM (inactive) and the GI50 (CCRF-CEM) was > 100 µM (inactive). The GI50 (UO-31) was > 100 µM (inactive), the GI50 (M14) was > 100 µM (inactive) and the GI50 (UACC-257) was > 100 µM (inactive). The GI50 (SK-MEL-2) was > 100 µM (inactive), the GI50 (DLD-1) was > 100 µM (inactive) and the GI50 (Malme-3M) was 0.182 µM (active). The GI50 (NCI-H460) was > 100 µM (inactive).
